One experiment deals with Human Mek1 Kinase (Homo sapiens, UniProt Q02750, S218E/S222E). Description: MEK-1 Enzyme Assay (LANCE-HTRF). The class given is biochemical. The conditions noted are these: constitutively active MEK-1EE, ERK-2K52A substrate, 9 μM ATP, 1.5 hrs room temperature. How it is done:
Assay 1: MEK-1 Enzyme Assay (LANCE-HTRF)
Inhibition of Human Mek1 Kinase Activity was Monitored with a Homogenous, fluorescence-based assay. The assay uses time resolved fluorescence resonance energy transfer to probe for phosphorylation of ERK1 by MEK1. The detailed procedure is described in the following:
Constititutively active MEK-1EE (150 ng/well) and ERK-2K52A (110 ng/well) were incubated in black, 384 well Optiplates (Perkin Elmer) for 1.5 hrs at room temperature, in the presence of increasing concentrations of inhibitors. The total reaction volume was 50 μl. The inhibitors were serial diluted in kinase buffer (9 μM ATP, 50 mM Tris-HCl pH 8.0, 10 mM MgCl2, 1 mM DTT and 100 μM Na3VO4), to a final concentration of 1% DMSO. At the end of the incubation, the enzyme reaction was quenched by adding 50 μl of assay buffer containing 50 mM Tris-HCl, 50 mM EDTA, 0.1% BSA and a mixture of 1.25 ug/ml europium labeled anti-phosphotyrosine mAb (Perkin Elmer) and 5 μg/ml of allophycocyanin labeled anti-GST antibody (CIS-US). Plates were agitated on a plate shaker for 30 minutes and the phosphorylation of the ERK-2K52A substrate was measured by homogeneous time resolved fluorescence (HTRF) at 340 nm excitation and 665 nm (Europium)/615 nm (APC) emission filters on the VICTOR V fluorescence plate reader. Phosphorylation is expressed as a ratio of 665 nM signal×10,000/615 nM signal. To assess the inhibitory potential of the compounds, IC50-values were determined. Results are shown in Table 1, column 2, where “+++” indicates IC50 values below 1 μM, “++” indicates IC50 values below 10 μM and above 1 μM, and “+” indicates IC50 values above 10 μM.
Background: TR-FRET usually uses a lanthanide donor and a delayed reading to cut background.

Experiment [1] deals with human pancreatic MiaPaCa-2 cells. Description: Tumor Cell Proliferation Assay (ATP Lite), MiaPaCa-2. The class given is cell-based. The conditions noted are these: MIA PaCa-2, 96 h, 4 days incubation, ATPlite, read-out: MiaPaCa2. As to the method:
(§1) Assay 2: Tumor Cell Proliferation Assays (ATP Lite)
(§2) Murine colon C26 (1500 cells/well), human melanoma A375 (2000 cells/well), or human pancreatic MiaPaCa-2 cells (2000 cells/well) were plated in white, 96 well plates (Corning) in growth media (DMEM with 10% fetal bovine serum, 2 mM glutamine for C26 and MiaPaCa-2, and RPMI with 10% fetal bovine serum, 2 mM glutamine for A375) and cultured overnight at 37° C. in a humidified, 5% CO2 incubator. Inhibitors were serially diluted in 100% DMSO and subsequently added to the cells, in growth media, to reach a final concentration of 0.25% DMSO. The cells were incubated for 4 days in the presence of the test compounds and the proliferation was quantitated using the ATPlite cell proliferation kit (Packard). Results of cell proliferation assay are shown in Table 1. columns 3-5, where “+++” indicates IC50 values below 1 μM, “++” indicates IC50 values below 10 μM and above 1 μM, and “+” indicates IC50 values above 10 μM.
In general terms: In ATP-based viability assays light output follows the ATP content of the culture.

In the next experiment the test system is Murine colon C26 cells. Description: Tumor Cell Proliferation Assay (ATP Lite), C26. The experiment is classed as cell-based. As to conditions: Mus musculus, 96 h, 4 days incubation, ATPlite. As to the method:
as §1, §2

Experiment [2] has as its system human melanoma A375 cells. Kind of experiment: Tumor Cell Proliferation Assay (ATP Lite), A375. The experiment is classed as cell-based. As to conditions: A-375, 96 h, 4 days incubation, ATPlite. As to the method: as §1, §2

Chain of Human Mek1 Kinase (Q02750 whole entry S218E/S222E): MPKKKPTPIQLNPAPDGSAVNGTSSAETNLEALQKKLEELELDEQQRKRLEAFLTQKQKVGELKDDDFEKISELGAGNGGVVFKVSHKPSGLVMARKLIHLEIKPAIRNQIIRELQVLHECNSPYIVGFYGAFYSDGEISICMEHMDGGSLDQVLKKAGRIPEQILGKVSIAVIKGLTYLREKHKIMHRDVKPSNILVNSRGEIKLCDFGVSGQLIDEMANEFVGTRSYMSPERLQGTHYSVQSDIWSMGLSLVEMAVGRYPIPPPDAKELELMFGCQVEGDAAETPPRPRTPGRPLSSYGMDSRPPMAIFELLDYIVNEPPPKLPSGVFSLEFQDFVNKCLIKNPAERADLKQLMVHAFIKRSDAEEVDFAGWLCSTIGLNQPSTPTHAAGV

`N#Cc1ncc(F)cc1Nc1ccc(I)cc1F` [Example 1, 5-Fluoro-3-(2-fluoro-4-iodo-phenylamino)-pyridine-2-carbonitrile]: at Human Mek1 Kinase, the IC50 was over 10 µM.

At Human Mek1 Kinase, `O=C(O)c1ncc(F)cc1Nc1ccc(I)cc1F` [Example 2, 5-Fluoro-3-(2-fluoro-4-iodo-phenylamino)-pyridine-2-carboxylic acid] registered an IC50 of 1 to 10 µM.

As for `NC(=O)c1ncc(F)cc1Nc1ccc(I)cc1F` [Example 3, 5-Fluoro-3-(2-fluoro-4-iodo-phenylamino)-pyridine-2-carboxylic acid amide], the IC50 was over 10 µM in experiment [1], under 1 µM at Human Mek1 Kinase, over 10 µM in the experiment with Murine colon C26 cells and 1 to 10 µM in experiment [2].

As to `O=C(O)c1cc(Cl)nnc1Nc1ccc(I)cc1F` [Example 4, 6-Chloro-3-(2-fluoro-4-iodo-phenylamino)-pyridazine-4-carboxylic acid], the IC50 in experiment [1] is over 10 µM; against Human Mek1 Kinase it was under 1 µM; in the experiment with Murine colon C26 cells it was over 10 µM; in experiment [2], over 10 µM.

Regarding `O=C(O)c1cc(N2CCOCC2)nnc1Nc1ccc(I)cc1F` [Example 5, 3-(2-Fluoro-4-iodo-phenylamino)-6-morpholin-4-yl-pyridazine-4-carboxylic acid], the IC50 in experiment [1] was over 10 µM; on Human Mek1 Kinase, 1 to 10 µM; in the experiment with Murine colon C26 cells it was over 10 µM; in experiment [2] it was over 10 µM.

Consider `COc1cc(C(=O)O)c(Nc2ccc(I)cc2F)nn1` [Example 6, 3-(2-Fluoro-4-iodo-phenylamino)-6-methoxy-pyridazine-4-carboxylic acid], for which the IC50 (in experiment [1]; against Human Mek1 Kinase; in the experiment with Murine colon C26 cells; in experiment [2]) was over 10 µM throughout.

On to `CC1(C)OC[C@H](CONC(=O)c2cc(Cl)nnc2Nc2ccc(I)cc2F)O1` [Example 7, 6-Chloro-3-(2-fluoro-4-iodo-phenylamino)-pyridazine-4-carboxylic acid (2,2-dimethyl-[1,3]dioxolan-4-ylmethoxy)-amide], for which the IC50 (in experiment [1]; against Human Mek1 Kinase; in the experiment with Murine colon C26 cells; in experiment [2]) was over 10 µM throughout.

Regarding `O=C(NOC[C@H](O)CO)c1cc(Cl)nnc1Nc1ccc(I)cc1F` [Example 8, 6-Chloro-3-(2-fluoro-4-iodo-phenylamino)-pyridazine-4-carboxylic acid (2,3-dihydroxy-propoxy)-amide], the IC50 against Human Mek1 Kinase was over 10 µM.

Turning to `NC(=O)c1cc(Cl)nnc1Nc1ccc(I)cc1F` [Example 9, 6-Chloro-3-(2-fluoro-4-iodo-phenylamino)-pyridazine-4-carboxylic acid amide], the IC50 is 1 to 10 µM in experiment [1], under 1 µM against Human Mek1 Kinase, over 10 µM with Murine colon C26 cells and 1 to 10 µM in experiment [2].

With `O=C(NCCN1CCOCC1)c1cc(Cl)nnc1Nc1ccc(I)cc1F` [Example 10, 6-Chloro-3-(2-fluoro-4-iodo-phenylamino)-pyridazine-4-carboxylic acid (2-morpholin-4-yl-ethyl)-amide], the IC50 at Human Mek1 Kinase was in the range of 1 to 10 µM.

With `O=C(O)c1ccc(F)nc1Nc1ccc(I)cc1F` [Example 11, 6-fluoro-2-[(2-fluoro-4-iodophenyl)amino]nicotinic acid], the IC50 is over 10 µM in experiment [1], under 1 µM against Human Mek1 Kinase, over 10 µM in the experiment with Murine colon C26 cells and over 10 µM in experiment [2].

`CC1(C)OC[C@H](CONC(=O)c2ccc(F)nc2Nc2ccc(I)cc2F)O1` [Example 12, N-{[(4R)-2,2-dimethyl-1,3-dioxolan-4-yl]methoxy}-6-fluoro-2-[(2-fluoro-4-iodophenyl)amino]nicotinamide]: the IC50 against Human Mek1 Kinase lay within 1 to 10 µM.

On to `O=C(NOC[C@H](O)CO)c1ccc(F)nc1Nc1ccc(I)cc1F` [Example 13, N—[(R)-2,3-Dihydroxy-propoxy]-6-fluoro-2-[(2-fluoro-4-iodo-phenylamino)]-nicotinamide], for which the IC50 is over 10 µM in experiment [1], 1 to 10 µM on Human Mek1 Kinase, over 10 µM with Murine colon C26 cells and 1 to 10 µM in experiment [2].
